The values below come from patent US7569547B2, “Inhibiting furin with polybasic peptides” (Board of Supervisors of Louisiana State University and …, priority 2001, dated 2009).

Non-standard residues stand in square brackets, D forms with d. Residues, ends and D or L forms follow the SMILES beside them.

What all share (assay type): biochemical
The target of assay [1] is T1, PC2 (Mus musculus, UniProt P21661).
T1 sequence (P21661 109-637): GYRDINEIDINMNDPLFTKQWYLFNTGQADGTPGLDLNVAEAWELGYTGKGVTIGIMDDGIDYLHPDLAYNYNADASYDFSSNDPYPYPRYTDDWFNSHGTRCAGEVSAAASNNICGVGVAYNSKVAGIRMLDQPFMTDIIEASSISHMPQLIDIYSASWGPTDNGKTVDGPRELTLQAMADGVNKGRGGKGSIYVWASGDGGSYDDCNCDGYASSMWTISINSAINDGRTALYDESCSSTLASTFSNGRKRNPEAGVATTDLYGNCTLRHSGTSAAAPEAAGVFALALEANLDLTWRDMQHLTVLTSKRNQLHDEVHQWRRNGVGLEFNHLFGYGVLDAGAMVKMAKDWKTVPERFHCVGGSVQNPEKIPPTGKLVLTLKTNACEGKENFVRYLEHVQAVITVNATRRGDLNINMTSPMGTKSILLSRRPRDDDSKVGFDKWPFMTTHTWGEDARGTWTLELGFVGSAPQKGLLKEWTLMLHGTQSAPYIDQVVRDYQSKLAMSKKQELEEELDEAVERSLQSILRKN
The assay can be described thus: PC2 enzyme assay, hydrolysis of pERTKR-MCA at pH 5.0. Further details: made in house. Here is the method:
(§1) The proprotein convertases PC1 and PC2 were prepared by ion exchange chromatography as described in G. Frenette et al., Biochim. Biophys. Acta., vol. 1334, pp. 109-115 (1997).
(§2) Enzyme Assays and Hexapeptide Library Screening. Enzyme assays for PC1 and PC2 were performed at pH 5.0 using pERTKR-MCA (Peptides International Inc., Louisville, Ky.) as described in E. Apletalina et al., J. Biol. Chem., vol. 273, pp. 26589-26595 (1998). The assay for furin was performed using the same substrate at pH 7.0 in 100 mM HEPES, 5 mM CaCl2, 0.1% Brij 35. All assays were performed at 37° C. in a 96 well fluorometer (Labsystems) at an excitation wavelength of 380 nm with emission monitored at a wavelength of 460 nm. The total volume was 50 μL. Unless otherwise stated, the final substrate concentration for all assays was 200 μM. When used in a particular experiment, the inhibitory peptides were pre-incubated with enzyme for 30 min at room temperature prior to addition of substrate. All assays were performed in duplicate or triplicate.

Assay [2] deals with T2, recombinant mouse furin (Mus musculus, UniProt P23188).
T2 construct: truncated N-terminally to the transmembrane domain at His^711 using PCR; myc (C, cleaved yes); hexa-His (C, cleaved yes); made in house; host or cells: DG44 CHO cells, conditioned medium
T2 sequence (P23188 108-714 limits assumed): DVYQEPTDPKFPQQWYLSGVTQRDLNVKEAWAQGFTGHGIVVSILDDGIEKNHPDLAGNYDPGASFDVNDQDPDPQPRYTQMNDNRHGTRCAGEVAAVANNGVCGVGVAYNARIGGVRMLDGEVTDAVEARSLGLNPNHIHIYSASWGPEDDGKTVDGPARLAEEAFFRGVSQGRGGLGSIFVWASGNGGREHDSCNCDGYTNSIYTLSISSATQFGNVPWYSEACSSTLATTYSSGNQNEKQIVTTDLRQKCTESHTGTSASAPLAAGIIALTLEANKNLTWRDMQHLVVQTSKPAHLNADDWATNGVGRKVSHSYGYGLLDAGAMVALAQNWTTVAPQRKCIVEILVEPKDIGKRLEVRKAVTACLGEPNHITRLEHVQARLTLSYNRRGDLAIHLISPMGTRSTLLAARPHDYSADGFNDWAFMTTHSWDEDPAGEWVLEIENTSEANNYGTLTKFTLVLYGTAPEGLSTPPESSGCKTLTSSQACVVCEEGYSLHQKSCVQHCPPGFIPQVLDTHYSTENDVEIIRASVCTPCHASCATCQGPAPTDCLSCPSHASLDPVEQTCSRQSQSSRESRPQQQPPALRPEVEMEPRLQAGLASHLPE
Nature of the assay: Furin enzyme assay, hydrolysis of pERTKR-MCA at pH 7.0. The conditions noted are these: for type of inhibition of furin (Lineweaver-Burk plots): furin 30 nM, 0, 20 or 40 μM hexapeptide, polyarginines forty-fold lower.
Description: Recombinant convertase preparation. The mouse furin clone was a kind gift from K. Nakayama (Fukuoka University School of Medicine, Fukuoka, Japan). The mouse furin cDNA was truncated N-terminally to the transmembrane domain at His^711 using PCR. This PCR product was then subcloned into pcDNA3.1 (−) myc-His (Invitrogen) at the Nhe1 and Xba1 restriction sites. Dihydrofolate-reductase-negative DG44 Chinese Hamster Ovary (CHO) cells (L. Chasin, Columbia University, New York, N.Y.) were transfected using Lipofectin (Life Technologies), and colonies were selected at 37° C. in 5% CO2 in α-MEM (lacking nucleosides) containing 10% well-dialyzed fetal bovine serum (Life Technologies). Conditioned media from colonies were screened using an enzyme assay (see below), and a high-expressing clone was selected. Overexpression of furin was achieved by increasing the methotrexate concentration from 5 nM to 50 μM in five- to ten-fold steps as described in I. Lindberg et al., Methods Neurosci., vol. 23, pp. 94-108 (1995). The amplified lines were tested for increased furin expression by enzyme assay. Once the 50 μM methotrexate level had been reached, cells were split at ratios of 1:6 twice a week. 100 mL of conditioned media (OptiMEM, Life Technologies) containing 100 μg/mL aprotinin (Miles Laboratories, Kankakee, Ill.) was collected from confluent roller bottles every 24 h. The medium was then centrifuged at low speed to remove cells, and the supernatant was stored at −80° C. until use.
Purification of furin: Conditioned medium was thawed, pooled, and diluted 1:3.5 with buffer A (20 mM HEPES, 0.1% Brij 35, 5 mM CaCl2, pH 7.4), and pumped at 40 mL/min through a Sartorius D100 anion exchange membrane. The membrane was washed with 40 mL of buffer A, followed by 40 mL of buffer A containing 50 mM NaCl, and finally by 40 mL of buffer A containing 200 mM NaCl. The fraction eluting with 200 mM NaCl was diluted 1:4 with buffer A and applied to a 1 mL Pharmacia Mono Q HR5/5 anion exchange column at a flow rate of 1 mL/min. Following a 10 mL wash with buffer A, furin was eluted by a linear increase of 0 to 500 mM NaCl in buffer A over 30 mL; and 2 mL fractions were collected. Fractions containing peak activity were pooled, and 200 μL aliquots were subjected to gel permeation chromatography using a Pharmacia Superose 12 column at a flow rate of 0.5 mL/min of buffer A containing 200 mM NaCl. Fractions were assayed for activity as described below; protein content was determined using the Bradford method. All purification steps were performed at 4° C.
as §2

Assay [3] addresses T3, PACE4 (Rattus norvegicus, UniProt Q63415).
T3 construct: made in house; host or cells: stably transfected hEK-293 cells (gift of R. E. Mains), conditioned medium
T3 sequence (Q63415 133-937): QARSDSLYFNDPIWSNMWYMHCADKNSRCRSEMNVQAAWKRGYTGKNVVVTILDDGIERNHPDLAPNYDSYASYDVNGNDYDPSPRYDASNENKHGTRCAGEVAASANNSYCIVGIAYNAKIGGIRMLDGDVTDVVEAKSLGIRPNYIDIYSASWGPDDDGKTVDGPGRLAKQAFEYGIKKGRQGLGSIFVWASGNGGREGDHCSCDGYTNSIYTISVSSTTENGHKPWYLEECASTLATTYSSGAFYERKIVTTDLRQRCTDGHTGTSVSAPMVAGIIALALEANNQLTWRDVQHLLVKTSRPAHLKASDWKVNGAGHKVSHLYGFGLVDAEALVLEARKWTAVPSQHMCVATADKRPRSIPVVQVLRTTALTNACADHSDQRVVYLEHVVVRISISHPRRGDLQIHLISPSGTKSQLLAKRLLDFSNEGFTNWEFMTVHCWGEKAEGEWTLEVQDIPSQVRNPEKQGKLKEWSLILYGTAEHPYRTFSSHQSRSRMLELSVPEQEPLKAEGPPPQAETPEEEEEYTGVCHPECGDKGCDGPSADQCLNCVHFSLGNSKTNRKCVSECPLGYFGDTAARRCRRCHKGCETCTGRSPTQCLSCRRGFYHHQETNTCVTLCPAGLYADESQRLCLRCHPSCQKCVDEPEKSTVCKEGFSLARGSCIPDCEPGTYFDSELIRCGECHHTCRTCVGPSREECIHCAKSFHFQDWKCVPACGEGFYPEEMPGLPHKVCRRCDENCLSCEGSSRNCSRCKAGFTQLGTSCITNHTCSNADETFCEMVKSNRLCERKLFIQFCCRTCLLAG
The assay can be described thus: PACE4 enzyme assay, hydrolysis of pERTKR-MCA. Here is the method: The proprotein convertase PACE4 was partially purified from an overnight-conditioned medium of stably transfected hEK-293 human embryonic kidney cells (a generous gift of R. E. Mains, Johns Hopkins University School of Medicine, Baltimore, Md.). Briefly, 100 mL of conditioned medium (OptiMEM containing 100 μg/mL aprotinin) was loaded onto an Econo-Pac Q (Bio-Rad) column at 4 mL/min, washed with 10 mL of buffer A, and then eluted with a linear gradient of buffer A containing 500 mM NaCl over 50 mL. The active fractions were then diluted 1:4 with buffer A prior to loading onto a Mono Q column (Pharmacia) at 1 mL/min. The PACE4 was eluted with a linear gradient of buffer A containing 500 mM NaCl over 10 mL. The resulting active fractions were then pooled and stored at −80° C. until use.
as §2

The target of assay [4] is T4, PC1 (Mus musculus, UniProt P63239).
T4 construct: made in house
T4 sequence (P63239 111-753): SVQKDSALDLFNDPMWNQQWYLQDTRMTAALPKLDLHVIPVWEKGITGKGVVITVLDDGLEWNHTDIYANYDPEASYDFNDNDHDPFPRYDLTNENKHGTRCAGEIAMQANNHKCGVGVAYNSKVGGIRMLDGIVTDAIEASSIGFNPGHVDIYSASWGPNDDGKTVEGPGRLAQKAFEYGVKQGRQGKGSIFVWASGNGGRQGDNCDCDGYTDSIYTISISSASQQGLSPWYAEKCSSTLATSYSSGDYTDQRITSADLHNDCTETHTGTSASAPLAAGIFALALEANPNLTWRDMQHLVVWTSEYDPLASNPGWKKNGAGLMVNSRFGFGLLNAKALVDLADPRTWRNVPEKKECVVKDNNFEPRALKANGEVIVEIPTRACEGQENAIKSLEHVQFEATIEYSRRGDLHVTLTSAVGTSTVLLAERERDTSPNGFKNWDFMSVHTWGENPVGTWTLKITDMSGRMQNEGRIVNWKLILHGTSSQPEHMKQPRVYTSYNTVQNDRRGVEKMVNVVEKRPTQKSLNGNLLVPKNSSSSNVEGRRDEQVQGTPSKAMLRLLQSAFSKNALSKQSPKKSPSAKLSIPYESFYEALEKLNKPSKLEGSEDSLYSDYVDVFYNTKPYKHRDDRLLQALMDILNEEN
The assay can be described thus: biochemical. As to the method:
as §1, §2

`CC(=O)N[C@@H](CC(C)C)C(=O)N[C@@H](CC(C)C)C(=O)N[C@@H](CCCN=C(N)N)C(=O)N[C@H](C(=O)N[C@@H](CCCCN)C(=O)N[C@@H](CCCN=C(N)N)C(=O)O)C(C)C` [Ac-LLRVKR] registered a Ki in assay [1] of 1.3 ± 0.6 µM. Turning to `CC[C@@H](C)[C@@H](NC(=O)[C@@H](CCCNC(=N)N)NC(=O)[C@@H](CCCNC(=N)N)NC(=O)[C@@H](CCCNC(=N)N)NC(=O)[C@@H](Cc1c[nH]c2ccccc12)NC(C)=O)C(=O)N[C@H](CC(C)C)C(N)=O` [Ac-wrrril-NH2] (Ac-[dW][dR][dR][dR][dI][dL]-NH2), the figures for the Ki in assay [2] and in assay [1] were 22.7 ± 4.3 µM and 601 ± 200 µM, respectively. With `CC[C@@H](C)[C@@H](NC(=O)[C@@H](CCCNC(=N)N)NC(=O)[C@@H](CCCNC(=N)N)NC(=O)[C@@H](CCCNC(=N)N)NC(=O)[C@@H](Cc1c[nH]c2ccccc12)NC(C)=O)C(=O)N[C@H](CCCNC(=N)N)C(N)=O` [Ac-wrrrir-NH2] (Ac-[dW][dR][dR][dR][dI][dR]-NH2), the Ki in assay [2] was found to be 7 ± 0.9 µM; in assay [1] it was 399 ± 75 µM. Turning to `CC(=O)N[C@H](Cc1c[nH]c2ccccc12)C(=O)N[C@H](CCCNC(=N)N)C(=O)N[C@H](CCCNC(=N)N)C(=O)N[C@H](CCCNC(=N)N)C(=O)N[C@H](CCCNC(=N)N)C(=O)N[C@H](CC(C)C)C(N)=O` [Ac-wrrrrl-NH2] (Ac-[dW][dR][dR][dR][dR][dL]-NH2), the Ki in assay [2] is 5.3 ± 1 µM; in assay [1] it was 203 ± 20 µM. Regarding `CC(=O)N[C@H](Cc1c[nH]c2ccccc12)C(=O)N[C@H](CCCNC(=N)N)C(=O)N[C@H](CCCNC(=N)N)C(=O)N[C@H](CCCNC(=N)N)C(=O)N[C@H](CCCNC(=N)N)C(=O)N[C@H](CCCNC(=N)N)C(N)=O` [Ac-wrrrrr-NH2] (Ac-[dW][dR][dR][dR][dR][dR]-NH2), in assay [2], the inhibition constant Ki came out at 2.4 ± 0.8 µM and the “type of inhibition of furin (Lineweaver-Burk plots)” value is listed as “strictly competitive-type inhibition”. In assay [1], the Ki stood at 334 ± 37 µM. Consider `N=C(N)NCCC[C@H](NC(=O)[C@H](CCCNC(=N)N)NC(=O)[C@H](CCCNC(=N)N)NC(=O)[C@H](CCCNC(=N)N)NC(=O)[C@H](CCCNC(=N)N)NC(=O)[C@H](CCCNC(=N)N)NC(=O)[C@@H](N)CCCNC(=N)N)C(=O)O` [Hepta-L-arginine], for which the Ki in assay [3] came out at 0.24 ± 0.045 µM; in assay [4], 5.2 ± 1.2 µM. Molecule `CC(C)C[C@H](NC(=O)[C@@H](N)CC(C)C)C(=O)N[C@@H](CCCNC(=N)N)C(=O)N[C@H](C(=O)N[C@@H](CCCCN)C(=O)N[C@@H](CCCNC(=N)N)C(N)=O)C(C)C` [LLRVKR-NH2] showed a Ki in assay [1] of 2.3 ± 0.2 µM. Take `CC(C)C[C@H](NC(=O)[C@@H](N)CC(C)C)C(=O)N[C@@H](CCCNC(=N)N)C(=O)N[C@H](C(=O)N[C@@H](CCCCN)C(=O)N[C@@H](CCCNC(=N)N)C(=O)O)C(C)C` [LLRVKR]: the “increase of inhibitory potency against furin on removing the terminal amide and acetyl groups” value in assay [2] (LLRVKR compared with acetylated and amidated form) is given as “eight-fold”. This molecule also came in with an inhibitory constant (Ki) in assay [1] of 3.7 ± 0.17 µM. Molecule Ac-HHKRRR-NH2 [Ac-HHKRRR-NH2] showed a Ki in assay [1] of 235 ± 16 µM. As to Ac-HRKRRR-NH2 [Ac-HRKRRR-NH2], the affinity in assay [1], expressed as Ki, was 309 ± 29 µM. In assay [1], Ac-KHKRRR-NH2 [Ac-KHKRRR-NH2] registered an inhibition constant (Ki) of 280 ± 29 µM.

For Ac-KRKRRR-NH2 [Ac-KRKRRR-NH2], the Ki in assay [1] was found to be 391 ± 60 µM. With Ac-MHKRRR-NH2 [Ac-MHKRRR-NH2], affinity in assay [1] was put at a Ki of 216 ± 13 µM. As to Ac-MRKRRR-NH2 [Ac-MRKRRR-NH2], the affinity in assay [1] corresponds to a Ki of 1500 µM. In the case of Ac-RHKRRR-NH2 [Ac-RHKRRR-NH2], the Ki is 3.4 ± 0.6 µM in assay [2] and 152 ± 30 µM in assay [1]. Turning to Ac-RRKRRR-NH2 [Ac-RRKRRR-NH2], the “type of inhibition of furin (Lineweaver-Burk plots)” value in assay [2] is recorded as “strictly competitive-type inhibition”. Moreover, the affinity in assay [1], expressed as Ki, was 461 ± 75 µM.

A word on the Ki: it is the dissociation constant of the complex between target and ligand, obtained from inhibition or displacement.
